Activity calls are given as the source filed them. The rule behind the calls is not given here.
What was measured:
[1] = target: Voltage-gated inwardly rectifying potassium channel KCNH2 (Homo sapiens, UniProt Q12809); experiment: Inhibition of hERG; assay type: toxicity
HT-1080 [2] = experiment: Anti-ferroptotic activity against Erastin-induced ferroptosis in human HT-1080 cells; assay type: functional, cell-based
Mus musculus [3] = experiment: Protection against doxorubicin-induced cardiomyopathy model of mouse assessed as […] in collagen outflow at 10 to 30 mg/kg, ip administered 2 hrs prior to doxorubicin administration measured by H and E staining method; assay type: functional, organism-based; details: dose 10-30 mg/kg
HT-1080 [4] = experiment: Anti-ferroptotic activity against Erastin-induced ferroptosis in human HT-1080 cells assessed as decrease in MDA level at 0.01 to 1 uM; assay type: functional, cell-based; details: dose 0.01-1 µM
Mus musculus [5] = experiment: Protection against doxorubicin-induced cardiomyopathy model of mouse assessed as decrease in serum AST level at 10 to 30 mg/kg, ip administered 2 hrs prior to doxorubicin administration; assay type: functional, organism-based; details: dose 10-30 mg/kg
MDA-MB-231 = experiment: Anti-ferroptotic activity against Erastin-induced ferroptosis in human MDA-MB-231 cells assessed as cell viability measured by MTT assay; assay type: functional, cell-based
Mus musculus [6] = experiment: Protection against doxorubicin-induced cardiomyopathy model of mouse assessed as decrease in serum LDH level at 10 to 30 mg/kg, ip administered 2 hrs prior to doxorubicin administration; assay type: functional, organism-based; details: dose 10-30 mg/kg
[7] = Antioxidant activity assessed as DPPH radical scavenging activity at 10 to 50 uM; assay type: functional; details: dose 10-50 µM
HT-1080 [8] = experiment: Anti-ferroptotic activity against Erastin-induced ferroptosis in human HT-1080 cells assessed as cell viability measured by MTT assay; assay type: functional, cell-based
Calu-1 [9] = experiment: Anti-ferroptotic activity against Erastin-induced ferroptosis in human Calu-1 cells assessed as decrease in smaller and rounder cells measured by 7-AAD staining method; assay type: functional, cell-based
HT-1080 [10] = experiment: Antioxidant activity in human HT-1080 cells assessed as reduction in ROS production in cytoplasm at 0.01 to 1 uM measured by H2DCFDA staining method; assay type: functional, cell-based; details: dose 0.01-1 µM
ES-2 = experiment: Anti-ferroptotic activity against Erastin-induced ferroptosis in human ES2 cells assessed as cell viability measured by MTT assay; assay type: functional, cell-based
Calu-1 [11] = experiment: Anti-ferroptotic activity against Erastin-induced ferroptosis in human Calu-1 cells assessed as decrease in smaller and rounder cells measured by cytocalcein violet 450 staining method; assay type: functional, cell-based
HT-1080 [12] = experiment: Antioxidant activity in human HT-1080 cells assessed as reduction in lipid ROS production at 0.01 to 1 uM measured by C11-BODIPY staining method; assay type: functional, cell-based; details: dose 0.01-1 µM
Mus musculus [13] = experiment: Protection against doxorubicin-induced cardiomyopathy model of mouse assessed as decrease in serum ALT level at 10 to 30 mg/kg, ip administered 2 hrs prior to doxorubicin administration; assay type: functional, organism-based; details: dose 10-30 mg/kg
Mus musculus [14] = experiment: Protection against doxorubicin-induced cardiomyopathy model of mouse assessed as decrease in serum CK-MB level at 10 to 30 mg/kg, ip administered 2 hrs prior to doxorubicin administration; assay type: functional, organism-based; details: dose 10-30 mg/kg
HT-1080 [15] = experiment: Anti-ferroptotic activity against Erastin-induced ferroptosis in human HT-1080 cells assessed as decrease in smaller and rounder cells measured by 7-AAD staining method; assay type: functional, cell-based
HT-1080 [16] = experiment: Anti-ferroptotic activity against Erastin-induced ferroptosis in human HT-1080 cells assessed as decrease in smaller and rounder cells measured by cytocalcein violet 450 staining method; assay type: functional, cell-based
Calu-1 [17] = experiment: Anti-ferroptotic activity against Erastin-induced ferroptosis in human Calu-1 cells assessed as cell viability measured by MTT assay; assay type: functional, cell-based
Mus musculus [18] = experiment: Protection against doxorubicin-induced cardiomyopathy model of mouse assessed as […] in collagen outflow at 10 to 30 mg/kg, ip administered 2 hrs prior to doxorubicin administration measured by Sirius red staining method; assay type: functional, organism-based; details: dose 10-30 mg/kg

Voltage-gated inwardly rectifying potassium channel KCNH2, sequence (Q12809 whole entry): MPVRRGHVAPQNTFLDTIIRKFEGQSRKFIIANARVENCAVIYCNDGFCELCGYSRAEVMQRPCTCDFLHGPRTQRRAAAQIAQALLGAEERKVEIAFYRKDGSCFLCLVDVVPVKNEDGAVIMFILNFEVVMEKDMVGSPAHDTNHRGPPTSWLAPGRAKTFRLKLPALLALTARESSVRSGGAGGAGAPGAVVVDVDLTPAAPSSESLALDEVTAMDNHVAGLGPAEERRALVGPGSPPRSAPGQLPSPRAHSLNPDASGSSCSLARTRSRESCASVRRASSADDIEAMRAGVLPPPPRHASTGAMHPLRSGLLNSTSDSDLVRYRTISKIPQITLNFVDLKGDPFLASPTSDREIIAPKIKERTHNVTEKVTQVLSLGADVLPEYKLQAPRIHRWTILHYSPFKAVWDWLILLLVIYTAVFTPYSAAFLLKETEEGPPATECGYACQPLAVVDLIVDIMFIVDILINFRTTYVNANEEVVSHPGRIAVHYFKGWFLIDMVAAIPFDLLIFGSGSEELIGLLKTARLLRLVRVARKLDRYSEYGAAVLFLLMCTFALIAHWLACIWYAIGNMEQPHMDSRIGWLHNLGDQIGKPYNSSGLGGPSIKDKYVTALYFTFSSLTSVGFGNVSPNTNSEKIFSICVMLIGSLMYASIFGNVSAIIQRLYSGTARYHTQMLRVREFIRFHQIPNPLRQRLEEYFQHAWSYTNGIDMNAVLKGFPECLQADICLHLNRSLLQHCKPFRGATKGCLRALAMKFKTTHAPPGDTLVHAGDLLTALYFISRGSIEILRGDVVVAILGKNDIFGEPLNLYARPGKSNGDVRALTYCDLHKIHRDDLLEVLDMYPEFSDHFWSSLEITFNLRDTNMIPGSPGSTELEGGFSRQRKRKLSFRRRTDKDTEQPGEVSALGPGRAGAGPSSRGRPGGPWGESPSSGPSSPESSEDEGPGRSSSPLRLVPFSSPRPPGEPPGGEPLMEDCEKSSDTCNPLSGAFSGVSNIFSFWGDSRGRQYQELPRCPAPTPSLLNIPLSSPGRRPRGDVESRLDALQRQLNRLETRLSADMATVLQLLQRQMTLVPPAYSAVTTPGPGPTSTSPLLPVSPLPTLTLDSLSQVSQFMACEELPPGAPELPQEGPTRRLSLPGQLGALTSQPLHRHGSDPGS

| SMILES | EC50 (HT-1080 [2]) [nM] | further results |
| --- | --- | --- |
| C=C(c1ccc(N2CC[C@H](N(C)C)C2)cc1)c1ccc2c(c1)Nc1ccccc1S2 | 1 | IC50 [1]: 5060 nM |
| C=C(c1ccc2c(c1)Nc1ccccc1S2)c1cnc2c(cnn2C)c1 | 58 |  |
| C=C(c1ccc2c(c1)Nc1ccccc1S2)c1ccc2c(c1)OCCO2 | 37 |  |
| CC(c1ccc(N2C[C@@H]3C[C@H]2CN3C)cc1)c1ccc2c(c1)Nc1ccccc1S2 (stereo partly drawn) | 3 | IC50 [1]: 1980 nM |
| C=C(c1ccc(-c2ccccc2)cc1)c1ccc2c(c1)Nc1ccccc1S2 | 41 |  |
| C=C(c1ccc2c(c1)Nc1ccccc1S2)c1cnc2ccccc2c1 | 19 |  |
| C=C(c1ccc2c(c1)Nc1ccccc1S2)c1cccc2cnccc12 | 26 |  |
| C=C(c1ccc2c(c1)Nc1ccccc1S2)c1ccc2c(c1)SCC(=O)N2 | 33 |  |
| C=C(c1cccc(N)c1)c1ccc2c(c1)Nc1ccccc1S2 | 17 |  |
| C=C(c1ccc(N)cc1)c1ccc2c(c1)Nc1ccccc1S2 | 8 |  |
| C=C(c1cnc2c(c1)CCN2)c1ccc2c(c1)Nc1ccccc1S2 | 89 |  |
| C=C(c1ccc(C(C)C)cc1)c1ccc2c(c1)Nc1ccccc1S2 | 40 |  |
| C=C(c1ccc2c(c1)Nc1ccccc1S2)c1cccc2ccncc12 | 21 |  |
| C=C(c1ccc(N2C[C@@H]3C[C@H]2CN3C)cc1)c1ccc2c(c1)Nc1ccccc1S2 | 3 | IC50 [1]: 12000 nM |
| C=C(c1ccc(NC(N)=O)cc1)c1ccc2c(c1)Nc1ccccc1S2 | 1 | Activity (Mus musculus [3]): Active; Activity (HT-1080 [4]): Active; Activity (Mus musculus [5]): Active; EC50 (MDA-MB-231): 1.01 nM; Activity (Mus musculus [6]): Active; Activity [7]: Active; EC50 (HT-1080 [8]): 1.61 nM; Activity (Calu-1 [9]): Active; Activity (HT-1080 [10]): Active; EC50 (ES-2): 1.81 nM; Activity (Calu-1 [11]): Active; Activity (HT-1080 [12]): Active; Activity (Mus musculus [13]): Active; Activity (Mus musculus [14]): Active; Activity (HT-1080 [15]): Active; IC50 [1]: > 30000 nM; Activity (HT-1080 [16]): Active; EC50 (Calu-1 [17]): 3.36 nM; Activity (Mus musculus [18]): Active |
| C=C(c1ccc2c(c1)Nc1ccccc1S2)c1cnc2c(ccn2C)c1 | 42 |  |
| C=C(c1ccc(N2CCOCC2)cc1)c1ccc2c(c1)Nc1ccccc1S2 | 39 |  |

More lines, in order of falling EC50 (HT-1080 [2]), values ahead:

| EC50 (HT-1080 [2]) [nM] | SMILES | further results |
| --- | --- | --- |
| 39 | C=C(c1ccc(C2CCCCC2)cc1)c1ccc2c(c1)Nc1ccccc1S2 |  |
| 29 | C=C(c1ccc2c(c1)Nc1ccccc1S2)c1ccccc1N |  |
| 25 | C=C(c1ccc2c(c1)Nc1ccccc1S2)c1cncc2ccccc12 |  |
| 20 | C=C(c1ccc(NC(=O)N(C)C)cc1)c1ccc2c(c1)Nc1ccccc1S2 |  |
| 13 | C=C(c1ccc(OC)cc1)c1ccc2c(c1)Nc1ccccc1S2 |  |
| 11 | C=C(c1ccc(C(F)(F)F)cc1)c1ccc2c(c1)Nc1ccccc1S2 |  |
| 10 | C=C(c1ccccc1)c1ccc2c(c1)Nc1ccccc1S2 |  |
| 4 | C=C(c1ccc(NC(C)=O)cc1)c1ccc2c(c1)Nc1ccccc1S2 | IC50 [1]: 22000 nM |
